Results published in ChEMBL document CHEMBL1143423, “In vivo efficacy of moxifloxacin compared with cloxacillin and vancomycin in a Staphylococcus aureus rabbit arthritis experimental model” (Antimicrob Agents Chemother, 2007).
Values after ≈ are worked out from the molar mass of the structure shown.

Columns and labels:
Staphylococcus aureus [1] = experiment: Antibacterial activity against methicillin-sensitive Staphylococcus aureus infected rabbit arthritis model assessed as change in bacterial load per gram of synovial fluid at 50 mg/kg, im administered thrice a day after 7 days by broth microdilution technique; type: functional; details: route intramuscular
[2] = Drug level in serum of Staphylococcus aureus infected rabbit arthritis model at 50 mg/kg, im administered thrice a day; type: ADME, organism-based, Oryctolagus cuniculus; parameters: dose 50 mg/kg, route intramuscular; details: in vivo
Staphylococcus aureus [3] = experiment: microbe, parasite or virus in culture
Description: Antibacterial activity against methicillin-resistant Staphylococcus aureus by broth microdilution technique

Staphylococcus aureus [4] = experiment: Antibacterial activity against methicillin-sensitive Staphylococcus aureus by broth microdilution technique; type: functional
[5] = Drug level in serum of Staphylococcus aureus infected rabbit arthritis model at 100 mg/kg, iv administered daily; type: ADME, organism-based, Oryctolagus cuniculus; parameters: dose 100 mg/kg, route intravenous; details: in vivo
[6] = AUC (0 to 24 hrs) in human serum at 400 mg, po administered as single dose; type: ADME, organism-based; parameters: time < 24 hr, dose 400 mg, route oral
[7] = AUC (0 to 24 hrs) in Staphylococcus aureus infected rabbit arthritis model at 45 mg/kg, po; type: ADME, organism-based, Oryctolagus cuniculus; parameters: time < 24 hr, dose 45 mg/kg, route oral; details: in vivo
[8] = Cmax in human serum at 400 mg, po administered as single dose; type: ADME, organism-based; details: read-out: tCmax
Staphylococcus aureus [9] = experiment: Antibacterial activity against ciprofloxacin and methicillin-resistant Staphylococcus aureus
[10] = Cmax in human serum at 400 mg, po administered as single dose after 1 hr; type: ADME, organism-based; parameters: dose 400 mg, route oral
[11] = Cmax in Staphylococcus aureus infected rabbit arthritis model at 45 mg/kg, po; type: ADME, organism-based, Oryctolagus cuniculus; parameters: dose 45 mg/kg, route oral; details: in vivo

SMILES	deltalog10CFU (Staphylococcus aureus [1])	Drug uptake [2] [mg/L]	MIC (Staphylococcus aureus [3]) [µg/mL]	MIC (Staphylococcus aureus [4]) [µg/mL]	Drug uptake [5] [mg/L]	AUC(0-t) at 24 h [6] [ng·h/mL]	AUC(0-t) at 24 h [7] [ng·h/mL]	Tmax [8] [h]	MIC (Staphylococcus aureus [9]) [µg/mL]	Cmax [10] [ng/mL]	Cmax [11] [ng/mL]
Cc1onc(-c2ccccc2Cl)c1C(=O)N[C@@H]1C(=O)N2[C@@H]1SC(C)(C)[C@@H]2C(=O)O [CLOXACILLIN]	4.6	0.8	4 (≈ 9.18 µM)	0.5 (≈ 1.15 µM)	–	–	–	–	–	–	–
CN[C@H](CC(C)C)C(=O)N[C@H]1C(=O)N[C@@H](CC(N)=O)C(=O)N[C@H]2C(=O)N[C@H]3C(=O)N[C@H](C(=O)N[C@H](C(=O)O)c4cc(O)cc(O)c4-c4cc3ccc4O)[C@H](O)c3ccc(c(Cl)c3)Oc3cc2cc(c3O[C@@H]2O[C@H](CO)[C@@H](O)[C@H](O)[C@H]2O[C@H]2C[C@](C)(N)[C@H](O)[C@H](C)O2)Oc2ccc(cc2Cl)[C@H]1O [VANCOMYCIN]	–	–	–	0.032 (≈ 0.0221 µM)	26.3	–	–	–	–	–	–
COc1c(N2C[C@@H]3CCCN[C@@H]3C2)c(F)cc2c(=O)c(C(=O)O)cn(C3CC3)c12 [MOXIFLOXACIN]	–	–	1 (≈ 2.49 µM)	0.032 (≈ 0.0797 µM)	–	35000	37500	1	0.25 (≈ 0.623 µM)	2500	2850
